Key:
Type in all cases: cell-based
[1] = system: B.1.1.7 (α-variant); test: SARS-CoV-2 inhibition assay in Vero E6 cells, B.1.1.7; conditions: 0.99 μM
[2] = system: variants of SARS-CoV-2 (B1.1.7, B.1.351, B.1.617.2, and B.1.617.1); conditions: for prevention of infection of all clades: alone at their highest doses; for reduction of SARS-CoV-2 infection in all lineages: alone or in combination, lowest given concentration
[3] = system: B.1.617.2 (δ-variant); test: SARS-CoV-2 inhibition assay in Vero E6 cells, B.1.617.2; conditions: 0.99 μM
[4] = system: B.1.351 (β-variant); test: SARS-CoV-2 inhibition assay in Vero E6 cells, B.1.351; conditions: 0.99 μM
[5] = system: B.1.617 (κ-variant); test: SARS-CoV-2 inhibition assay in Vero E6 cells, B.1.617; conditions: 0.99 μM

N[C@@H](CC(=O)N1CCn2c(nnc2C(F)(F)F)C1)Cc1cc(F)c(F)cc1F [Sitagliptin, sitagliptin]
effect on α-SARS-CoV-2 growth [1]: partially inhibit | inhibition of viral growth among all variants ([2]; 1.98 μM): 6–7 folds | prevention of infection of all clades [2]: entirely prevent the infection of all clades | reduction of SARS-CoV-2 infection in all lineages [2]: 6–10 folds | effect on δ-SARS-CoV-2 growth [3]: unable to prevent even the partial growth | effect on β-SARS-CoV-2 growth [4]: partially inhibit | effect on κ-SARS-CoV-2 growth [5]: partially inhibit

CC#CCn1c(N2CCC[C@@H](N)C2)nc2c1c(=O)n(Cc1nc(C)c3ccccc3n1)c(=O)n2C [Linagliptin, linagliptin]
inhibitory effectiveness against all VOCs [2]: dose-dependent inhibitory effectiveness | prevention of infection of all clades [2]: entirely prevent the infection of all clades | reduction of SARS-CoV-2 infection in all lineages [2]: 6–10 folds

— paper PMC10293653 (International Journal of Biological Macromolecules, 2023)
